Measured values as given in patent EP4227307A1 (Genzyme Corporation, priority 2022, dated 2023).
pIC50: −log10 of the molar value.

These compounds were tested against T1, human recombinant 6His-Nterm SHP2 full-length (Thr2-Arg593) (Homo sapiens, UniProt Q06124) (assay: SHP2 Phosphatase Assay (DiFMUP fluorescence)). Conditions: SHP2 0.2 nM pre-incubated with 100 nM bi-phosphorylated activating peptide; compound 1000-0.05 nM, 30 min pre-incubation; DiFMUP 20 µM, 45 min, room temperature; 10-concentration dose-response.
T1 construct: 6His-Nterm SHP2 full-length (Thr2-Arg593, R&D system); 6His (N); purchased R&D system
T1 sequence (Q06124 2-593): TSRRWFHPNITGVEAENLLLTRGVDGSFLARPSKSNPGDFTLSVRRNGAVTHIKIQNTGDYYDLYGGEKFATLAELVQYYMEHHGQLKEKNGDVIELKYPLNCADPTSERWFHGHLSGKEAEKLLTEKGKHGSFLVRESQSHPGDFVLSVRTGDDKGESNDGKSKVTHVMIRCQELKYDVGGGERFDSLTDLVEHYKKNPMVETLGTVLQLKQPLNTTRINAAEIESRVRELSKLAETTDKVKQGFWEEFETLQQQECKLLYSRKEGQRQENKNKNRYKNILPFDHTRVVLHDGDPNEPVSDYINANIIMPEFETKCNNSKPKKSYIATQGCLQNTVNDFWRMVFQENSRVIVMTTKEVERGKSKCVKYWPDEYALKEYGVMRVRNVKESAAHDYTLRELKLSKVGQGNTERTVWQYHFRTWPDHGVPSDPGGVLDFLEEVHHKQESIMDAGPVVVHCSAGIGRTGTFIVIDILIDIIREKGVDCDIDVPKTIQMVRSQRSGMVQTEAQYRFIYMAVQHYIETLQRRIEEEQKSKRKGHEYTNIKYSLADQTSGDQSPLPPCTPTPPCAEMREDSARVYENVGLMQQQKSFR
Format: biochemical
In short: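 SHP2 (0.2 nM) preactivated ≥10 min with 100 nM bis-phosphorylated peptide, then 30 min with compound (10 concentrations, 1000–0.05 nM) at room temperature, pH 7.2 HEPES buffer with DTT. DiFMUP (20 µM, added solution) reacted 45 min, pervanadate-stopped; fluorescence 350/450 nm. IC50 by 4-parameter logistic fit.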

pIC50	Compound
7.41	Cc1nc(N2CCC3(CC2)Cc2ncccc2[C@H]3N)c2ccnn2c1-c1cccc(F)c1C#N [Compound 180, 2-fluoro-6-[6-methyl-4-[(5S)-5-aminospiro[5,7-dihydrocyclopenta[b]pyridine-6,4'-piperidine]-1'-yl]pyrazolo[1,5-a]pyrazin-7-yl]benzonitrile]
8.30	Cc1nc(N2CCC3(CC2)Cc2ncccc2[C@H]3N)c2ccnn2c1-c1cccc(C#N)c1F [Compound 181, 2-fluoro-3-[6-methyl-4-[(5S)-5-aminospiro[5,7-dihydrocyclopenta[b]pyridine-6,4'-piperidine]-1'-yl]pyrazolo[1,5-a]pyrazin-7-yl]benzonitrile]
7.96	Cc1nc(N2CCC3(CC2)Cc2ncccc2[C@H]3N)c2ccnn2c1-c1ccc2ccn(C)c2c1 [Compound 184, (5S)-1'-[6-methyl-7-(1-methylindol-6-yl)pyrazolo[1,5-a]pyrazin-4-yl]spiro[5,7-dihydrocyclopenta[b]pyridine-6,4'-piperidine]-5-amine]
8.70	Cc1ccc(-c2c(C)nc(N3CCC4(CC3)Cc3ncccc3[C@H]4N)c3ccnn23)c(F)c1 [Compound 186, (5S)-1'-[7-(2-fluoro-4-methyl-phenyl)-6-methyl-pyrazolo[1,5-a]pyrazin-4-yl]spiro[5,7-dihydrocyclopenta[b]pyridine-6,4'-piperidine]-5-amine]
7.80	Cc1nc(N2CCC3(CC2)Cc2ncccc2[C@H]3N)c2ccnn2c1-c1cccc(CO)c1 [Compound 191, [3-[6-methyl-4-[(5S)-5-aminospiro [5,7-dihydrocyclopenta[b]pyridine-6,4'-piperidine]-1'-yl]pyrazolo[1,5-a]pyrazin-7-yl]phenyl]methanol]
8.70	Cc1nc(N2CCC3(CC2)Cc2ncccc2[C@H]3N)c2ccnn2c1-c1cccc(Cl)c1Cl [Compound 192, (5S)-1'-[7-(2,3-dichlorophenyl)-6-methyl-pyrazolo[1,5-a]pyrazin-4-yl]spiro[5,7-dihydrocyclopenta[b]pyridine-6,4'-piperidine]-5-amine]
8.52	Cc1nc(N2CCC3(CC2)Cc2ncccc2[C@H]3N)c2ccnn2c1-c1ccc(F)cc1F [Compound 193, (5S)-1'-[7-(2,4-difluorophenyl)-6-methyl-pyrazolo[1,5-a]pyrazin-4-yl]spiro[5,7-dihydrocyclopenta[b]pyridine-6,4'-piperidine]-5-amine]
8.30	Cc1nc(N2CCC3(CC2)Cc2ncccc2[C@H]3N)c2ccnn2c1-c1ccsc1 [Compound 194, (5S)-1'-[6-methyl-7-(3-thienyl)pyrazolo[1,5-a]pyrazin-4-yl]spiro[5,7-dihydrocyclopenta[b]pyridine-6,4'-piperidine]-5-amine]
8.40	Cc1nc(N2CCC3(CC2)Cc2ncccc2[C@H]3N)c2ccnn2c1-c1cc(F)ccc1F [Compound 195, (5S)-1'-[7-(2,5-difluorophenyl)-6-methyl-pyrazolo[1,5-a]pyrazin-4-yl]spiro[5,7-dihydrocyclopenta[b]pyridine-6,4'-piperidine]-5-amine]
8.15	Cc1nc(N2CCC3(CC2)Cc2ncccc2[C@H]3N)c2ccnn2c1-c1cccc(F)c1C [Compound 197, (5S)-1'-[7-(3-fluoro-2-methyl-phenyl)-6-methyl-pyrazolo[1,5-a]pyrazin-4-yl]spiro[5,7-dihydrocyclopenta[b]pyridine-6,4'-piperidine]-5-amine]
8.52	Cc1nc(N2CCC3(CC2)Cc2ncccc2[C@H]3N)c2ccnn2c1-c1ccc(F)c(F)c1 [Compound 201, (5S)-1'-[7-(3,4-difluorophenyl)-6-methyl-pyrazolo[1,5-a]pyrazin-4-yl]spiro[5,7-dihydrocyclopenta[b]pyridine-6,4'-piperidine]-5-amine]
7.59	Cc1nc(N2CCC3(CC2)Cc2ncccc2[C@H]3N)c2ccnn2c1-c1ccc2ncccc2c1 [Compound 202, (5S)-1'-[6-methyl-7-(6-quinolyl)pyrazolo[1,5-a]pyrazin-4-yl]spiro[5,7-dihydrocyclopenta[b]pyridine-6,4'-piperidine]-5-amine]
8.22	Cc1nc(N2CCC3(CC2)Cc2ncccc2[C@H]3N)c2ccnn2c1-c1cccc(F)c1 [Compound 203, (5S)-1'-[7-(3-fluorophenyl)-6-methyl-pyrazolo[1,5-a]pyrazin-4-yl]spiro[5,7-dihydrocyclopenta[b]pyridine-6,4'-piperidine]-5-amine]

The remaining lines, values behind:

Compound	pIC50
Cc1nc(N2CCC3(CC2)Cc2ncccc2[C@H]3N)c2ccnn2c1-c1cccc2c1ccn2C [Compound 182, (5S)-1'-[6-methyl-7-(1-methylindol-4-yl)pyrazolo[1,5-a]pyrazin-4-yl]spiro[5,7-dihydrocyclopenta[b]pyridine-6,4'-piperidine]-5-amine]	7.64
Cc1nc(N2CCC3(CC2)Cc2ncccc2[C@H]3N)c2ccnn2c1-c1ccc2c(c1)OCCO2 [Compound 183, (5S)-1'-[7-(2,3-dihydro-1,4-benzodioxin-6-yl)-6-methyl-pyrazolo[1,5-a]pyrazin-4-yl]spiro[5,7-dihydrocyclopenta[b]pyridine-6,4'-piperidine]-5-amine]	8.52
COc1ccc(-c2c(C)nc(N3CCC4(CC3)Cc3ncccc3[C@H]4N)c3ccnn23)c(F)c1 [Compound 185, (5S)-1'-[7-(2-fluoro-4-methoxy-phenyl)-6-methyl-pyrazolo[1,5-a]pyrazin-4-yl]spiro[5,7-dihydrocyclopenta[b]pyridine-6,4'-piperidine]-5-amine]	8.15
Cc1nc(N2CCC3(CC2)Cc2ncccc2[C@H]3N)c2ccnn2c1-c1cc(C(F)(F)F)ccc1F [Compound 187, (5S)-1'-[7-[2-fluoro-5-(trifluoromethyl)phenyl] -6-methyl-pyrazolo[1,5-a]pyrazin-4-yl]spiro[5,7-dihydrocyclopenta[b]pyridine-6,4'-piperidine]-5-amine]	6.60
Cc1nc(N2CCC3(CC2)Cc2ncccc2[C@H]3N)c2ccnn2c1-c1ccc2c(c1)CCO2 [Compound 188, (5S)-1'-[7-(2,3-dihydrobenzofuran-5-yl)-6-methyl-pyrazolo[1,5-a]pyrazin-4-yl]spiro[5,7-dihydrocyclopenta[b]pyridine-6,4'-piperidine]-5-amine]	8.15
Cc1nc(N2CCC3(CC2)Cc2ncccc2[C@H]3N)c2ccnn2c1-c1ccc(CC#N)cc1 [Compound 189, 2-[4-[6-methyl-4-[(5S)-5-aminospiro[5,7-dihydrocyclopenta[b]pyridine-6,4'-piperidine]-1'-yl]pyrazolo[1,5-a]pyrazin-7-yl]phenyl]acetonitrile]	8.40
Cc1nc(N2CCC3(CC2)Cc2ncccc2[C@H]3N)c2ccnn2c1-c1ccc(C#N)s1 [Compound 190, 5-[6-methyl-4-[(5S)-5-aminospiro[5,7-dihydrocyclopenta[b]pyridine-6,4'-piperidine]-1'-yl]pyrazolo[1,5-a]pyrazin-7-yl]thiophene-2-carbonitrile]	7.51
Cc1nc(N2CCC3(CC2)Cc2ncccc2[C@H]3N)c2ccnn2c1C1=CCOCC1 [Compound 196, (5S)-1'-[7-(3,6-dihydro-2H-pyran-4-yl)-6-methyl-pyrazolo[1,5-a]pyrazin-4-yl]spiro[5,7-dihydrocyclopenta[b]pyridine-6,4'-piperidine]-5-amine]	7.08
Cc1nc(N2CCC3(CC2)Cc2ncccc2[C@H]3N)c2ccnn2c1-c1ccnc(N2CCOCC2)c1F [Compound 198, (5S)-1'-[7-(3-fluoro-2-morpholino-4-pyridyl)-6-methyl-pyrazolo[1,5-a]pyrazin-4-yl]spiro[5,7-dihydrocyclopenta[b]pyridine-6,4'-piperidine]-5-amine]	6.36
Cc1nc(N2CCC3(CC2)Cc2ncccc2[C@H]3N)c2ccnn2c1-c1cncc(Cl)c1 [Compound 199, (5S)-1'-[7-(5-chloro-3-pyridyl)-6-methyl-pyrazolo[1,5-a]pyrazin-4-yl]spiro[5,7-dihydrocyclopenta[b]pyridine-6,4'-piperidine]-5-amine]	7.85
COc1c(F)cccc1-c1c(C)nc(N2CCC3(CC2)Cc2ncccc2[C@H]3N)c2ccnn12 [Compound 200]	7.36
CC(=O)c1ccc(F)c(-c2c(C)nc(N3CCC4(CC3)Cc3ncccc3[C@H]4N)c3ccnn23)c1 [Compound 204, 1-[4-fluoro-3-[6-methyl-4-[(5S)-5-aminospiro [5,7-dihydrocyclopenta[b]pyridine-6,4'-piperidine]-1'-yl]pyrazolo[1,5-a]pyrazin-7-yl]phenyl]ethanone]	7.26
Cc1nc(N2CCC3(CC2)Cc2ncccc2[C@H]3N)c2ccnn2c1-c1ccc(C#N)cc1F [Compound 206, 3-fluoro-4-[6-methyl-4-[(5S)-5-aminospiro[5,7-dihydrocyclopenta[b]pyridine-6,4'-piperidine]-1'-yl]pyrazolo[1,5-a]pyrazin-7-yl]benzonitrile]	7.92
